Reference: PMC10343216 (Molecules, 2023)
Several values for one entry are separate records, joined by “and”; a condition that tells them apart may be missing. Equal values may be shown once. Read-outs that look alike come from different tables or passages of the source.

Experiments:
[1] = ZINC database ref 39; cited from earlier work
rat 11β-HSD1 = target: T1, rat 11β-HSD1 (Rattus norvegicus, UniProt P16232); assay: Rat 11β-HSD1 assay in rat liver microsomes (DHC to CORT, HPLC-MS/MS); assay type: biochemical; conditions: for remaining activity at 100 µM: read-out: 11β-HSD1 residual activity relative to the control (DMSO); for Mode Action: rat 11β-HSD1, judged by α and Lineweaver-Burk plot; for α (mixed model): rat liver 11β-HSD1
T1 construct: Rat 11β-HSD1 in liver microsomes catalyzes the conversion of DHC to CORT; from tissue; host or cells: liver microsomes of male Sprague-Dawley rats (age 3 months), prepared in house
T1 sequence (P16232 whole entry): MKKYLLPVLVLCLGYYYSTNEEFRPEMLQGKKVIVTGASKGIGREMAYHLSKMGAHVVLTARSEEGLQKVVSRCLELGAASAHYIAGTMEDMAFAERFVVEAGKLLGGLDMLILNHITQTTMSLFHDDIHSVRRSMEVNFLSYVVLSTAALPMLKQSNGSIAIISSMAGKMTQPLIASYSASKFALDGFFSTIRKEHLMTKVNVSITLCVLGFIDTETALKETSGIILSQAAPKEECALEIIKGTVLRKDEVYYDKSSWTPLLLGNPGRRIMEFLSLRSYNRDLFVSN
Experimental: The preparation of rat liver microsomes was carried out as previously reported. In this preparation procedure, rat livers were homogenized in sucrose (0.25 M) containing PBS (0.01 M, pH 7.2). […] The pellets were resuspended in cold PBS by homogenization, and the concentration of microsomal protein was determined using the Bio-Rad Protein Assay Kit (CAT#: P0010; Beyotime, Jiangsu, China) according to the manufacturer’s instructions.
(§1) The 11β-HSD1 activity was determined by measuring the reductive catalysis of 11keto-steroid substrates, cortisone for human 11β-HSD1 and DHC for rat 11β-HSD1, which were converted to cortisol and CORT, respectively. The 11β-HSD1 assay was carried out as previously described with a minor modification. […] At the end of the reaction, acetonitrile (200 µL, CAT#: UN1648; Sigma) and internal standard testosterone-d5 (IS, T-d5, 10 μL, Zzbio, Shanghai, China) were added to the system, the organic layer was extracted, and 10 µL was injected into the HPLC-MS/MS system to measure cortisol, or CORT, as previously described.
(§2) The amount of cortisol, or CORT, in the organic layer was determined using an Acquity UPLC equipped with a BEH C18 column (2.1 mm, 50 mm, 1.7 m) and a 0.2 mm stainless steel frit filter and an XEVO TQD triple quadrupole mass spectrometer (Waters, Milford, MA, USA), as previously described. The mobile phase was a mixture of solvents A (0.1% formic acid in water) and B (acetonitrile) combined in the following gradient program: 5–5% B (0–0.5 min), 5–95% B (0.5–1.0 min), 95–95% B (1.0–2.0 min), and 95–5% B (2.0–2.1 min). The injection volume was 6 µL, and the flow rate was 0.40 mL/min. Before the second injection, a re-equilibration period of 0.9 min was set. The temperatures were 4 °C for the sample and 40 °C for column. Mass spectrometric detection was carried out using a Waters Corporation XEVO TQD triple quadruple mass spectrometer with an ESI source. For cortisol and IS, the multiple reaction monitoring mode transitions were m/z 358.3→340.3 and m/z 237.2→194.3. Data collection and instrument control were performed using Masslynx 4.1 software (Waters Corp., Milford, MA, USA). Cortisol, or CORT, standards were prepared by dissolving them in methanol. […] The enzymatic activity obtained by measuring the conversion rate (%) of cortisone to cortisol for human 11β-HSD1 or DHC to CORT for rat 11β-HSD1 was calculated.
(§3) The time curve of the 11β-HSD1 reaction was prepared by a linear regression using GraphPad version 8.0 (GraphPad, San Diego, CA, USA). […] The lineweaver-Burk plot after linear regression was also carried out to judge the mode of action.

human 11β-HSD1 = target: T2, human 11β-HSD1 (Homo sapiens, UniProt P28845); assay: Human 11β-HSD1 assay in human liver microsomes (cortisone to cortisol, HPLC-MS/MS); assay type: biochemical; conditions: for IC50 / remaining activity at 100 µM: 200 nM cortisone, 15 min; for IC50: Mean ± SEM, n = 4; for Mode Action: human 11β-HSD1, judged by α and Lineweaver-Burk plot; for remaining activity at 100 µM: human, 100 µM compound, read-out: 11β-HSD1 residual activity relative to the control (DMSO)
T2 construct: Human 11β-HSD1 in liver microsomes catalyzes the conversion of cortisone to cortisol; tissue Iphase (Beijing, China) H2610; host or cells: human liver microsomes (purchased)
T2 sequence (P28845 whole entry): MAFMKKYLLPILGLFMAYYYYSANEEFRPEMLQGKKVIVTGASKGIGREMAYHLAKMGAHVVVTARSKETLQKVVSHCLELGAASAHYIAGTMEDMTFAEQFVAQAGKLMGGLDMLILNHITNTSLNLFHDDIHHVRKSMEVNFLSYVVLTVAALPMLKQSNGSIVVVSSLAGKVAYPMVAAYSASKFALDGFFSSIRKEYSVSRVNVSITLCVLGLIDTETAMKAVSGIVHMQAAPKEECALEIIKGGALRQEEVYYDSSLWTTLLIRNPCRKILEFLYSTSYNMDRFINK
Experimental: as §1, §2, §3

[2] = rat, 100 µM compound, 200 nM DHC, 15 min
[3] = human liver microsomes, read-out: IC50
[4] = substrate, rat liver microsomes, Michaelis-Menten
[5] = substrate, human liver microsomes, Michaelis-Menten

SMILES | LogP [1] | remaining activity at 100 µM (rat 11β-HSD1; [2]) [%] | Ki (human 11β-HSD1) [µM] | IC50 (human 11β-HSD1; IC50, human liver microsomes) [µM] | Mode Action (human 11β-HSD1) | remaining activity at 100 µM (human 11β-HSD1) [%] | IC50 (rat 11β-HSD1) [µM] | also measured
Cc1cc(C(C)(C)c2ccc(O)c(C)c2)ccc1O [DMBPA, 2,2-bis(4-hydroxy-3-methylphenyl)propane] | 4.041 and 4.04 | > 50 | 31 | 30.2 ± 0.71 | competitive inhibitors | ≤ 50 | – | –
C=CCc1cc(C(C)(C)c2ccc(O)c(CC=C)c2)ccc1O [DABPA, 2,2′-diallyl BPA] | 4.881 | > 50 | 14 | 13.4 ± 0.19 | competitive inhibitors | ≤ 50 | 132 ± 1.66 | –
COc1ccc(C(C)(C)c2ccc(OC)cc2)cc1 [BPAME, 4,4′-(propane-2,2-diyl)bis(methoxybenzene)] | 4.03 | > 50 | – | – | competitive inhibitors | ≤ 50 | – | IC50 (rat 11β-HSD1; rat liver microsomes, 200 nM DHC, 15 min, Mean ± SEM, n = 4, read-out: IC50): 206 ± 2.16 µM; IC50 (human 11β-HSD1; [3]): 33.1 ± 0.57 µM; Ki (human 11β-HSD1; human liver microsomes, enzyme kinetics-inhibition (mixed model), read-out: Ki (inhibition constant, measured)): 33.8 µM
CC(C)c1cc(C(C)(C)c2ccc(O)c(C(C)C)c2)ccc1O [BPG, 4,4′-(propane-2,2-diyl)bis(2-isopropylphenol)] | 5.671 | ≤ 50 | 5.33 | 5.06 ± 0.07 | competitive inhibitors | ≤ 50 | 104 ± 1.52 | Ki (rat 11β-HSD1): 88.6 µM; Mode Action (rat 11β-HSD1): mixed/competitive inhibitors; α (mixed model) (rat 11β-HSD1): 5.78
C[C@]12CC(=O)[C@H]3[C@@H](CCC4=CC(=O)CC[C@@]43C)[C@@H]1CC[C@@H]2C(=O)CO [DHC, 11-dehydrocorticosterone, reference compound] | – | – | – | – | – | – | – | Km (rat 11β-HSD1; [4]): 0.94 ± 0.09 µM; Vmax (rat 11β-HSD1; [4]): 1072 ± 115.5 pmol/mg/min
Cc1cc(C(C)(C)c2cc(C)c(O)c(C)c2)cc(C)c1O [TMBPA, 2,2-bis(4-hydroxy-3,5-dimethylphenyl)propane] | – | – | – | – | – | > 50 | – | 11β-HSD1 residual activity relative to the control (DMSO) (rat 11β-HSD1; [2]): ineffective; IC50 (human 11β-HSD1; [3]): 319.2 ± 2.78 µM
CC(C)(c1ccc(O)cc1)c1ccc(O)cc1 [BPA, bisphenol A, reference compound] | 3.424 and 3.42 | ≤ 50 | – | 297 ± 2.99 | – | > 50 | 36.8 ± 1.09 | –
CC(C)(c1ccc(O)c(-c2ccccc2)c1)c1ccc(O)c(-c2ccccc2)c1 [BPH, 2,2-bis(2-hydroxy-5-biphenylyl)propane] | 6.758 | ≤ 50 | 0.44 | 0.75 ± 0.02 | competitive inhibitors | ≤ 50 | 74.2 ± 0.98 | Ki (rat 11β-HSD1): 74.6 µM; Mode Action (rat 11β-HSD1): mixed/competitive inhibitors; α (mixed model) (rat 11β-HSD1): ∞
C[C@]12CCC(=O)C=C1CC[C@@H]1[C@@H]2C(=O)C[C@@]2(C)[C@H]1CC[C@]2(O)C(=O)CO [cortisone, reference compound] | – | – | – | – | – | – | – | Km (human 11β-HSD1; [5]): 0.93 ± 0.22 µM; Vmax (human 11β-HSD1; [5]): 253.2 ± 20.5 pmol/mg/min
